# Source: US9790188B2, “Benzimidazole derivatives and uses thereof” (Whitehead Institute for Biomedical Research, priority 2013, dated 2017)
# Entries after “also recorded” stand apart in the source; their conditions may differ.
# Experiments:
# [1] = test system: α-syn; test: Western blot of α-syn levels in yeast; format: cell-based; settings: α-syn-expressing yeast
# Method: Protein analysis of α-syn-GFP was performed in NoTox, InTox, and HiTox strains with ABI1 treatment at indicated concentrations. Log phase CSM/2% raffinose cultures were induced with 2% galactose for 5 hours with DMSO or ABI1. Cultures were normalized to cell density and cell pellets prepared for SDS-PAGE. Cell pellets were boiled in SDS-loading dye for 15′, centrifuged, and resolved by 4-12% SDS-PAGE. […] From the same gel, total protein was detected by coomassie staining. Both blots and coomassie-stained gels were scanned using the Li-Cor Odyssey imaging system and quantitated. Values were expressed as α-syn normalized to total protein (FIG. 1E). Significance was determined using a one-way ANOVA with Tukey's test of significance.
# [2] = test system: TH-positive (dopaminergic) neurons; test: Primary ventral mesencephalic cultures transduced with A53T α-syn; format: cell-based, rat; settings: A53T α-syn adenovirus, 0.1 μM
# Method: Experiments aimed at monitoring dopaminergic cell viability in primary mesencephalic cultures were performed as described previously (7-9). Briefly, cells obtained from the midbrains of E17 rat embryos were plated at a density of 2.18×10^3 cells per mm^2 on a 48-well plate. Four days after plating, the cells were treated with cytosine arabinofuranoside (20 μM) to restrict the growth of glial cells. Three days later (7 days in vitro), the cells were transduced with an adenovirus encoding A53T α-syn, generated using the Invitrogen ViraPower Adenoviral Expression System (38), at a multiplicity of infection (MOI) of 15 in the absence or presence of ABI1 (0.1 μM). After a 72-h transduction period, the media was replaced with fresh media with or without ABI1 for an additional 24 h. […] MAP2- and TH-immunoreactive neurons were counted by an investigator blinded to the identity of the treatment conditions in at least ten randomly chosen observation fields (encompassing ˜800-1600 MAP2^+ neurons) per treatment using a Nikon TE2000-U inverted fluorescence microscope with a 20× objective. Relative dopaminergic cell viability was calculated as the percentage of MAP2-positive neurons that were also TH-positive and normalized by the value determined for control cells (set to 100%). […]
# [3] = test system: WT yeast; test: Growth inhibition of wild-type yeast (dose-response); format: cell-based; settings: at concentrations higher than those that rescue α-syn toxicity
# Method: Source plates were assembled in 96 well plates using multichannel pipettes to dilute rows in 1.6-fold serial dilutions of CSMGal. […] For α-syn, the final starting OD600 was 0.02. Drug concentration ranges varied depending on efficacy, growth inhibition, and solubility in media. A Tecan EvoFreedom liquid handling robot was then used to transfer culture from 96 to 384 well format with each well being represented four times. Final well volume was 35 μL. Plates were then incubated in humidified containers at 30° C. for either 24 or 40 hours. Plates were then read with a Tecan Saphire plate reader at OD600.
# Raw OD600 values were transformed to “Relative Growth” in WT cells or “% Maximum Rescue” in α-syn experiments. In WT cells, the well background was subtracted and all values were then normalized to 100% for the untreated condition. In α-syn rescue experiments, the well background was subtracted and the maximum rescue in the particular experiment was normalized to 100%.
# [4] = test system: WT yeast; test: Viable cells recovered after prolonged treatment at growth inhibitory concentrations
compound,measurement,setting,value
"Cc1cccc(-n2cnc3cc(C(=O)NCc4ccccc4Cl)ccc32)c1 [ABI, N-(2-chlorobenzyl)-1-(m-tolyl)-1H-benzo[d]imidazole-5-carboxamide]",α-syn levels,[1],did not reverse α-syn phenotypes by reducing α-syn levels; also recorded: did not detect changes
same,retraction of neuronal processes / neurite length,[2],markedly reduced the retraction of neuronal processes; also recorded: reversed
same,survival of TH-positive neurons (% of MAP2-positive neurons),[2],largely restored the survival; also recorded: reversed
same,growth inhibition of wild-type cells,[3],inhibited the growth of wild-type cells
same,viability of cells,[4],retained full viability
